The source of these data is ChEMBL document CHEMBL1201862, “PubChem BioAssay data set” (2004).

The target in assay [1] is Potassium voltage-gated channel subfamily KQT member 2 (Rattus norvegicus, UniProt O88943, W236L). Nature of the assay: KCNQ2 channel potentiators, dose response, mechanism study for KCNQ2 potentiator project, cell-based, automated electrophysiology (AID 2603). It is filed as functional.
The nature of assay [2]: M. tuberculosis H37Rv growth inhibitors, H37Rv strain (AID 1626). The class given is functional.
A further assay addresses Genome polyprotein (Hepatitis C virus, UniProt Q2Q167). Nature of the assay: HCV core protein dimerization inhibitors, dose response, biochemical, TR-FRET (AID 2159).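 Also: blocks dimerization of HCV core protein measured by TR-FRET between tagged core106 pairs.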 On the set-up: species or system Hepacivirus hominis. A general note: TR-FRET usually uses a lanthanide donor and a delayed reading to cut background.
For assay [3], the target named is T1, Sphingosine 1-phosphate receptor 2 (Homo sapiens, UniProt O95136). Nature of the assay: Dose Response Cell Based Assay for Agonists of the S1P2 Receptor of Purchased Analogues. [Related pubchem assays: 729, 843, 854, 736 ]. The class given is functional.
T1 sequence (O95136 whole entry): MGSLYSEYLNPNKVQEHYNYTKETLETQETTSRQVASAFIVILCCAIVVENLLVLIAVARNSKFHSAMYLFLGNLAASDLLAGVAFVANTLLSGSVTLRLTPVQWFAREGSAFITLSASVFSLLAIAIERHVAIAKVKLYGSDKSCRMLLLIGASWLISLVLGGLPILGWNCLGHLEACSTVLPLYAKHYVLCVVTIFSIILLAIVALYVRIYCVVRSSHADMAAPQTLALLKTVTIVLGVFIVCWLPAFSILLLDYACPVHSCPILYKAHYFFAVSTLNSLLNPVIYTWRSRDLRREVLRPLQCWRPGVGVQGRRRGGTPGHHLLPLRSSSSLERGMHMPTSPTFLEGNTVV
In assay [4] the target is Peroxisome proliferator-activated receptor gamma/Nuclear receptor corepressor 2 (Homo sapiens, UniProt P37231+Q9Y618). As to the kind of experiment: Counterscreen for NR2E3 inverse agonists: TR-FRET-based biochemical high throughput dose response assay to identify inverse agonists of the interaction between peroxisome proliferator-activated receptor gamma (PPARg) and nuclear receptor co-repressor 2 (NCOR2). It is filed as functional.
Peroxisome proliferator-activated receptor gamma/Nuclear receptor corepressor 2, sequence (P37231 whole entry): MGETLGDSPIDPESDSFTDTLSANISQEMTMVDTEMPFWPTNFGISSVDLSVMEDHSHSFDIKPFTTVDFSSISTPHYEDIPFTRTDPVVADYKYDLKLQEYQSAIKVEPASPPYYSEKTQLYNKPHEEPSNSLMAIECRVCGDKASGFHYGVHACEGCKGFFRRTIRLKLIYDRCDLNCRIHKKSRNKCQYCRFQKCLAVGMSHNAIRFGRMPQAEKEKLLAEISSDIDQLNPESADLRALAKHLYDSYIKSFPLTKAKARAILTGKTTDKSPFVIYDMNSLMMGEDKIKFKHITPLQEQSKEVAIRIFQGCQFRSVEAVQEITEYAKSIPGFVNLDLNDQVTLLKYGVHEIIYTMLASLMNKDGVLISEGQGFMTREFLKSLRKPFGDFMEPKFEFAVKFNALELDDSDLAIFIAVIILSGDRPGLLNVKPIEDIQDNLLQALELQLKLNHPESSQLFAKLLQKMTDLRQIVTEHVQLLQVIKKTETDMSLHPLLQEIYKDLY
Peroxisome proliferator-activated receptor gamma/Nuclear receptor corepressor 2, sequence (Q9Y618 whole entry): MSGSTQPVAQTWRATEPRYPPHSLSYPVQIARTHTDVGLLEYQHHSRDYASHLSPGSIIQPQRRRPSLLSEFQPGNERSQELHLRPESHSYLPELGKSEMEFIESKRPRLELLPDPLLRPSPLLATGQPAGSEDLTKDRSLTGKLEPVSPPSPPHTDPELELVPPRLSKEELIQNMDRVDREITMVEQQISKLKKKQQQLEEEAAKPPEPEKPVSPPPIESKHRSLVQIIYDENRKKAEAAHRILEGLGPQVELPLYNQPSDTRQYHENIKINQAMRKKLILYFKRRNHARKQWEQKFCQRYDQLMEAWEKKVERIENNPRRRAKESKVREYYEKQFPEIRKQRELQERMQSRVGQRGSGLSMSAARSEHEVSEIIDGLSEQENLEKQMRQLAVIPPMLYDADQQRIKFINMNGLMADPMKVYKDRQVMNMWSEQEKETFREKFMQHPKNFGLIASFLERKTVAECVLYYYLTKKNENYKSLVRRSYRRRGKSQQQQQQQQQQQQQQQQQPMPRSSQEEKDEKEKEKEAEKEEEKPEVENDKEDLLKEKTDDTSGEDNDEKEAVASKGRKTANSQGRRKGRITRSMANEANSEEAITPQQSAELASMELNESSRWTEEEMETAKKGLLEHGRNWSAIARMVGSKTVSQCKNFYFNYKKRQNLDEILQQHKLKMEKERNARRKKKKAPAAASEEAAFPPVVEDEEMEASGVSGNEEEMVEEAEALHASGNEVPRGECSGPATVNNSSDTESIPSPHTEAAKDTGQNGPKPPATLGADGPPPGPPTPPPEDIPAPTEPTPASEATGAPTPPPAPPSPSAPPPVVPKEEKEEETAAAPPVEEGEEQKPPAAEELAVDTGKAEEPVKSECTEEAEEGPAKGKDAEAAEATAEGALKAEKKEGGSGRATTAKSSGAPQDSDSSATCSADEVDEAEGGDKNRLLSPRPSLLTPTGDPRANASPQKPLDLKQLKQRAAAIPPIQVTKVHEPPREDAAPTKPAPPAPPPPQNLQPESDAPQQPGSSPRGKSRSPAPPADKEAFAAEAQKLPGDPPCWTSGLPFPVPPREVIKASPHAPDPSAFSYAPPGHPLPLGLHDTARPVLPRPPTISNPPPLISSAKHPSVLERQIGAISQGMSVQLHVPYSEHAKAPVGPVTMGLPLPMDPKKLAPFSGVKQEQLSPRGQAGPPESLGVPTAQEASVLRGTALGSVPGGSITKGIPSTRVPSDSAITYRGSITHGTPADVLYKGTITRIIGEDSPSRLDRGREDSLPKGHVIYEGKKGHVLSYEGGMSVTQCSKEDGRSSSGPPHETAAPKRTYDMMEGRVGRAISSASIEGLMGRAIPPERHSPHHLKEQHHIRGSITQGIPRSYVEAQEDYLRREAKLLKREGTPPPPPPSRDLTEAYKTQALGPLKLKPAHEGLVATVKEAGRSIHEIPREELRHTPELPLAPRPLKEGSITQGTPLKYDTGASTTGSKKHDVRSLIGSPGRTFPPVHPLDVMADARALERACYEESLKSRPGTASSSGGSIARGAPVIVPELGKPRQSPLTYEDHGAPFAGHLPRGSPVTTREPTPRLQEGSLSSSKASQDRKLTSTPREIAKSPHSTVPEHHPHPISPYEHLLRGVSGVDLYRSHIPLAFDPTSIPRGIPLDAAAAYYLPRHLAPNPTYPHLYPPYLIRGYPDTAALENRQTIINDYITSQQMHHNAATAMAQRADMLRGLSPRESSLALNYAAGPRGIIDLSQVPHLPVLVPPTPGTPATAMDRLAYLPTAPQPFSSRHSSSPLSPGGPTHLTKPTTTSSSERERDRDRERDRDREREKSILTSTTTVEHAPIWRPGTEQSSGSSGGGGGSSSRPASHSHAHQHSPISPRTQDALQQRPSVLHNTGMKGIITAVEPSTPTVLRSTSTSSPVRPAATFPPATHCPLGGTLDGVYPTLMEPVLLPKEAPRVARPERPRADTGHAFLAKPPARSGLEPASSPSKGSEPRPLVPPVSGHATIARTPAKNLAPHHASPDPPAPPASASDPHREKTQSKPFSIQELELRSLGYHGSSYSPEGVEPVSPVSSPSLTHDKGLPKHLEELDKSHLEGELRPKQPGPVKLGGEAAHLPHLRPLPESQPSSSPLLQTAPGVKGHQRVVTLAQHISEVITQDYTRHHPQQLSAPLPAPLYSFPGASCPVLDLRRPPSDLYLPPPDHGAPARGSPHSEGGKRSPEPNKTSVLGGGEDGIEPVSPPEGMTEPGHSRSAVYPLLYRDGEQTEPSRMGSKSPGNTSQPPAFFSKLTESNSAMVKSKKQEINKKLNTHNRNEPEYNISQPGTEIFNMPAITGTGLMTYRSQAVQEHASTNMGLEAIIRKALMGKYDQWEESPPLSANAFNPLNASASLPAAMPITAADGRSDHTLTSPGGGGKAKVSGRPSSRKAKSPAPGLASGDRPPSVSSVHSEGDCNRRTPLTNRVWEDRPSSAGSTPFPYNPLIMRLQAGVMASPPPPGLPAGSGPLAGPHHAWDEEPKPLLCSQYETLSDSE

A further assay deals with MEF. As to the kind of experiment: SAR analysis of small molecule cytotoxicity of MazEF TA System activators in embryonic fibroblast (MEF) cells. [Related pubchem assays (depositor defined):AID504720, AID504743]. The class given is functional. The conditions noted are these: Mus musculus.
Assay [5] addresses T2, Endoribonuclease toxin MazF (Escherichia coli K-12, UniProt P0AE70).
T2 sequence (P0AE70 whole entry): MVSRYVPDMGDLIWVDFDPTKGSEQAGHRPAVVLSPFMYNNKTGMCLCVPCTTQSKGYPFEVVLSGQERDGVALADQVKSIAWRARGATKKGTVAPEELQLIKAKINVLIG
As to the kind of experiment: MazF toxin RNase activators, dose response, biochemical, fluorescence, single-stranded RNA substrate, uHTS hits (AID 588481). The class given is functional.

The next assay deals with Cytochrome P450 3A4 (Homo sapiens, UniProt P08684).
Cytochrome P450 3A4, sequence (P08684 whole entry): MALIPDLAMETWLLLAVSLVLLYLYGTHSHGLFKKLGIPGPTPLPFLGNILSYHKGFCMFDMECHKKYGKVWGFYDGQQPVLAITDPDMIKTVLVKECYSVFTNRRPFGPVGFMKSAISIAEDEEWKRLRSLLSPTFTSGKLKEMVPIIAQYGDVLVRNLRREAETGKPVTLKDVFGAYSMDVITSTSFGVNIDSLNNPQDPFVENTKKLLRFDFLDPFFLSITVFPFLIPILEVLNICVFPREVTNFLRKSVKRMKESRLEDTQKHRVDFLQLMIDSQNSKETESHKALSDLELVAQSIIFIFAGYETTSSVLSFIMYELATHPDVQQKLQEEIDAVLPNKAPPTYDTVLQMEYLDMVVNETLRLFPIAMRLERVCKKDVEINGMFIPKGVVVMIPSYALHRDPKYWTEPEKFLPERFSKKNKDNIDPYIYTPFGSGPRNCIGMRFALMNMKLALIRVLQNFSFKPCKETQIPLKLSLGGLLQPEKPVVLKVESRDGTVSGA
For assay [6], the target named is T2, Endoribonuclease toxin MazF. As to the kind of experiment: MazF endoribonuclease activators, SAR follow-up, biochemical, fluorescence, single-stranded RNA substrate (AID 588603). The class given is functional.
In the next assay the target is Cytochrome P450 2C9 (Homo sapiens, UniProt P11712).
Cytochrome P450 2C9, sequence (P11712 whole entry): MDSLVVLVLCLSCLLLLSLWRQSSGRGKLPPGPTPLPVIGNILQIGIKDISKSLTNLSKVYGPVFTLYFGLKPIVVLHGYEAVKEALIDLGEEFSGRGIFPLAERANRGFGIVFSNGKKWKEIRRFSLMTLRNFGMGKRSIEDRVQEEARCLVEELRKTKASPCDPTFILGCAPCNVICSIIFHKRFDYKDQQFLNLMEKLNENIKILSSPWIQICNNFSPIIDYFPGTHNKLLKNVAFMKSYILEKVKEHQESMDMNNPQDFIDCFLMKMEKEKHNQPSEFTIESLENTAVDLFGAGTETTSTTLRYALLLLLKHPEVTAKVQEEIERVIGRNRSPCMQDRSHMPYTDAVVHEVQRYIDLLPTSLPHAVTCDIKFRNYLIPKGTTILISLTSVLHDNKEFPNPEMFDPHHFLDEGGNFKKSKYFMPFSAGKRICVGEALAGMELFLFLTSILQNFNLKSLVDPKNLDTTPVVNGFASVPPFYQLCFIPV
For assay [7], the target named is T2, Endoribonuclease toxin MazF. Nature of the assay: fluorescent RNA oligo signal without MazF, dose response, counter-screen for MazEF activator project, biochemical, fluorescence, single-stranded RNase substrate (AID 588502). It is filed as functional.
Assay [8] has the same target. As to the kind of experiment: SAR analysis of small molecule activators of the MazEF TA System via a fluorescence-based single-stranded RNase assay counterscreen. [Related pubchem assays (depositor defined):AID504720, AID504743]. It is filed as functional. In general terms: A counterscreen serves to expose hits that act by an unwanted route or on another target.
Assay [9] concerns the target Photoreceptor-specific nuclear receptor (Homo sapiens, UniProt Q9Y5X4). Nature of the assay: NR2E3 inverse agonists, dose response, biochemical, TR-FRET (AID 463256). It is filed as functional.
Assay [10] can be described thus: M. tuberculosis growth inhibition, HTS (AID 449762). The class given is functional.
Assay [11] in a line: microbe, parasite or virus in culture. Particulars: Mycobacterium tuberculosis. The class given is functional.
Assay [12] has as its target T1, Sphingosine 1-phosphate receptor 2. Nature of the assay: Dose Response Cell Based Assay for Agonists of the S1P2 Receptor. [Related pubchem assays: 729, 736, 843 ]. The class given is functional.
Assay [13] concerns the target T3, Tyrosine-protein phosphatase non-receptor type 7 (Homo sapiens, UniProt P35236).
T3 sequence (P35236 whole entry): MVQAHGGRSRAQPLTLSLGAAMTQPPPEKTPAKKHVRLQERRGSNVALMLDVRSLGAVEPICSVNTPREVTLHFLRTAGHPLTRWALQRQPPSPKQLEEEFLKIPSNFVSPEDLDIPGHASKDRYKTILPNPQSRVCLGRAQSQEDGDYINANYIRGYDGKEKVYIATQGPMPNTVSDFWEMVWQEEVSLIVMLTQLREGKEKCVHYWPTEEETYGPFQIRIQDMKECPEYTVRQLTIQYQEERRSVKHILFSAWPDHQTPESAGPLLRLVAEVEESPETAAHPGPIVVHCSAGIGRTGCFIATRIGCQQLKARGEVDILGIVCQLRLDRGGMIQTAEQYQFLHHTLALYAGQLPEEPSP
As to the kind of experiment: inhibitors of human HePTP phosphatase, […], biochemical, absorbance, leukemia target (AID 521). It is filed as functional.

The structures appear in SMILES notation. Calls of active or inactive are those of the source.

Photoreceptor-specific nuclear receptor, sequence (Q9Y5X4 whole entry): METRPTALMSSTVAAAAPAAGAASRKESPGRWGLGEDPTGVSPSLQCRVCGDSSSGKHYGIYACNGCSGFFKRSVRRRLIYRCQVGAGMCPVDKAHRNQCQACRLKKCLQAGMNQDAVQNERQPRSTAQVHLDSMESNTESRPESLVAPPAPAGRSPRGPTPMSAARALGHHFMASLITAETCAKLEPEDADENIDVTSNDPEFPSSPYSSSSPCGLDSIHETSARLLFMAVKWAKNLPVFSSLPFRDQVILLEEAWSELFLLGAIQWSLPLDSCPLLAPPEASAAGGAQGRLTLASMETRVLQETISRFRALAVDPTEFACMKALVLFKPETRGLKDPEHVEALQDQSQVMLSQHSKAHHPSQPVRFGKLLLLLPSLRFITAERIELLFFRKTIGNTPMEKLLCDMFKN
Genome polyprotein, sequence (Q2Q167 whole entry): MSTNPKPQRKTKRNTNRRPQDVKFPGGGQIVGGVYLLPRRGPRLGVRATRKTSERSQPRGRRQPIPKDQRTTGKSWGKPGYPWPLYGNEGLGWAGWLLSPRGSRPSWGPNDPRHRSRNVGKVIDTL

As usually defined, the EC50 is the concentration giving half of the maximal effect. With `Cc1nc(C)c(-c2csc(Nc3ccccn3)n2)s1`, in [1], the 50% effective concentration (EC50) is 115 µM (active).

What is called IC50 is the concentration that inhibits the measured activity by half. Take `COc1ccc(NCN2C(=O)CCC2=O)cc1`: in assay [2], the 50% inhibitory concentration (IC50) is > 100 µM (active).

For the compound `CC1(C)Cc2c(C#N)c(N3CCN(C(=O)c4ccco4)CC3)nc(-c3ccco3)c2CS1`, on Genome polyprotein, the concentration for half-maximal inhibition (IC50) is recorded as > 49.8 µM (not active).

Consider `Cc1cc(C(=O)COC(=O)CN2C(=O)C3CCCCC3C2=O)c(C)n1Cc1ccccc1` (configuration not stated), for which the EC50 in assay [3] was > 30 µM (not active).

The AC50 is the concentration giving half of the maximal activity seen. For the compound `O=C(CSc1nc(-c2ccccc2)nc2ccccc12)Nc1nccs1`, the results for the IC50 in assay [4] and in assay [9] were > 39.8 µM (not active) and 5.93 µM (active), respectively. Moreover, in the assay on MEF, the CC50 was 29.7 µM (active). Moreover, the EC50 was 20.7 µM (inactive) in assay [5], 29.1 µM (inactive) in [6], 45 µM (inactive) in assay [7] and > 99 µM (inactive) in assay [8]. Moreover, the values for the concentration at half-maximal activity (AC50) on Cytochrome P450 3A4 and at Cytochrome P450 2C9 were 1 µM (inconclusive) and 0.631 µM (inconclusive), respectively.

In the case of `COc1cc2c(-c3ccc4[nH]ccc4c3)c(-c3ccc(C#N)cc3)oc(=O)c2cc1OC`, the IC50 in assay [10] is > 100 µM (active). In addition, in assay [11], the CC50 is > 40 µM (active).

As for `Cc1ccc(Cn2cccc(-c3nc4ccccc4s3)c2=O)cc1`, in [12], the EC50 was 4.14 µM (active).

`O=c1c2c3c(sc2nc2n1CCC2)CCC3`: the 50% inhibitory concentration (IC50) in [13] is > 100 µM (not active).
